Source: US20260258351A1, “METHOD FOR DIFFERENTIATING VISCERAL SENSORY NEURONS FROM HUMAN INDUCED PLURIPOTENT STEM CELLS” (SEOUL NATIONAL UNIVERSITY R&DB FOUNDATION, priority 2022, published 2026)

Test system: induced-Visceral sensory neurons (i-VSN)
Assay: Live cell calcium imaging of induced-Visceral sensory neurons after compound treatment
Assay type: cell-based, human
Settings: real-time calcium imaging, FLIPR Calcium 6 Assay Kit, FIGS. 7a-7f
Experimental: For Live cell calcium imaging, the FLIPR Calcium 6 Assay Kit ([…], Molecular Devices) was used. The overall steps were performed according to the manufacturer's protocol. The test solution, in which components A and B were mixed, was incubated in an incubator at 37° C. for 2 hours, and during this process, the carbon dioxide concentration was maintained at 5%. Then, after treatment with a fluorescent substance, the fluorescence signal was detected for 5 minutes using an EVOS live imaging system (Thermo-Fisher) capable of maintaining a temperature of 37° C., a 5% carbon dioxide concentration, and 80% humidity. The detected signals were obtained by video or continuous snapshots (once per second). In order to confirm the functional aspect of the induced Visceral sensory neurons, the changes in the activity of the neurons were measured using a real-time calcium imaging technique after treating the Visceral sensory neurons with various compounds known to stimulate the same. A total of three compounds (i.e., liraglutide, CCK-8, and capsaicin) were used. Liraglutide corresponds to an agonist of GLP1R and is known to activate the nodose ganglion. […] CCK-8 is an agonist of the CCK receptor and is known to be able to stimulate the nodose ganglion as well. […] Capsaicin is a compound that has excitotoxicity toward TRPV1 and is known to detect pain and heat sensations in the nodose ganglion. […]

Compound | change in neuron activity (calcium signal) after treatment
COc1cc(CNC(=O)CCCC/C=C/C(C)C)ccc1O [Capsaicin] | induced the activity
CCK-8 | calcium signal was amplified
